The source of these data is patent US20220339187A1, “ANTIMICROBIAL PEPTIDE-SELENIUM NANOPARTICLES” (The University of Melbourne, priority 2019, published 2022).

The subject of data set [1] is E. faecalis ATCC 29212. The experiment in a line: Membrane potential change test (BacLight, DiOC2(3)). The format is cell-based, Enterococcus faecalis. Conditions: 6.25 or 12.5 μg/ml. The method, then: (§1) Membrane potential change was measured using a BacLight Bacterial Membrane Potential Kit (Invitrogen). The bacterial strain methicillin-sensitive S. aureus (MSSA) ATCC 29213, E. faecalis ATCC 29212, E. coli ATCC 25922 were cultured in MHB at 37° C. 50 μL of different concentrations of Se NPs, Se NP-ε-PL or pure ε-PL in PBS solution was added into each well of 96-well microplates. 50 μL MHB with 2.5×10^6 cells/mL bacteria was then added into each well. 50 μL MHB with 2.5×10^6 cells/mL bacteria was added to 50 μL PBS to act as untreated control. Carbonyl cyanide 3-chlorophenylhydrazone (CCCP) was added to untreated control at a final concentration of 5 μM to act as fully depolarized control. 3,3′-Diethyloxacarbocyanine Iodide (DiOC2(3)) was added to all wells at a final concentration of […]. […] The untreated (polarized) and CCCP-treated (fully depolarized) controls were used to determine the percentage of depolarized cells. Two independent experiments were done for this test, and two technical replicates were adopted for each independent experiment.

In data set [2] the test system is Acinetobacter baumannii (A. baumannii) 2208 ATCC19606. Briefly: CFU measuring assay / MBC calculation. The format is cell-based. Conditions: 90 min at 37° C., linear regression, mean ± s.d. The method, then:
(§2) For the CFU measuring assay, 50 μL of different concentrations of Se NPs, Se NP-ε-PL or pure ε-PL in PBS solution was added into each well of 96-well microplates, then 50 μL MHB with 2.5×10^6 cells/mL bacteria were added into each well. After incubating the microplate at 37° C. for 90 min, the bacterial solutions were diluted 10^−1, 10^−2, 10^−3 and 10^−4 times, then 10 μL of each dilution was transferred onto agar plates with MHB. The agar plates were incubated overnight, before the bacterial colony forming units were observed and measured.
(§3) Concentration-killing curves were plotted with CFUs/mL as a function of antibacterial agent concentration, and linear regression analysis was used to determine the lowest concentration (MBC) at which the CFU/mL becomes zero.

In data set [3] the test system is Escherichia coli (E. coli) ATCC 25922. The experiment in a line: CFU measuring assay / MBC calculation. The data set is classed as cell-based. Conditions: 90 min at 37° C., linear regression, mean ± s.d. Here is the method: as §2, §3
Data set [4] deals with methicillin-sensitive Staphylococcus aureus (S. aureus) ATCC 29213. Briefly: CFU measuring assay / MBC calculation. The format is cell-based. As to conditions: 90 min at 37° C., linear regression, mean ± s.d. The method, then: as §2, §3
In data set [5] the test system is Pseudomonas aeruginosa (P. aeruginosa) strain PAO1-LAC ATCC 47085. Briefly: CFU measuring assay / MBC calculation. As to conditions: 90 min at 37° C., linear regression, mean ± s.d. The data set is classed as cell-based. Here is the method:
as §2, §3

The subject of data set [6] is Enterococcus faecalis (E. faecalis) ATCC 29212. The experiment in a line: CFU measuring assay / MBC calculation. The format is cell-based. As to conditions: 90 min at 37° C., linear regression, mean ± s.d. The method, then: as §2, §3
The test system of data set [7] is E. faecalis ATCC 29212. Briefly: Helium ion microscopy (HIM) of treated bacteria. The format is cell-based, Enterococcus faecalis. As to conditions: 90 min incubation. The method, then: The morphologies of bacterial strains methicillin-sensitive S. aureus (MSSA) ATCC 29213, E. faecalis ATCC 29212, E. coli ATCC 25922, A. baumannii 2208 ATCC19606 and K. pneumoniae ATCC 13883 after treatment with Se NPs, Se NP-ε-PL or pure ε-PL were observed using Helium Ion Microscopy (HIM, Zeiss, Germany). The samples were prepared in the following steps. First, 100 μL of 125 μg/mL Se NPs, Se NP-ε-PL or pure ε-PL in PBS solution was added to each well of 96-well microplates, 100 μL pure PBS was used as untreated control. Afterwards, 100 μL MHB with 1.25×10^7/mL bacteria was added to each well. After 90 min incubation, 10 μL of both treated and untreated bacteria was dropped on clean silicon wafers, and they were then dried at 37° C. for 20 min. The dried samples were transferred to a 12-well plate, 2.5% glutaraldehyde was added to each well to fix the bacteria cells for 1 h, then gradient ethanol solution (30%, 50%, 60%, 70%, 80%, 90%, 95% and 100%) was used for dehydration. The prepared samples were dried in the fume hood overnight before use.

In data set [8] the test system is human dermal fibroblast cells (HDF). The experiment in a line: Cell Counting Kit-8 (CCK-8) cytotoxicity assay. The data set is classed as cell-based. Conditions: all tested concentrations (1-50 μg/mL), 24 h. Here is the method: Two methods were adopted to test the cytotoxicity of Se NP-ε-PL, namely the Cell Counting Kit-8 (CCK-8) assay and Lactate Dehydrogenase (LDH) assay.
Cytotoxicity of Se NPs, Se NP-ε-PL and pure ε-PL was tested using human dermal fibroblast cells (HDF). HDF were cultured in Dulbecco's modified Eagle's medium (DMEM) with 10% foetal bovine serum (FBS), 100 U·mL^−1 penicillin and 100 μg·mL^−1 streptomycin at 37° C. in a humidified atmosphere of 5% CO2. For the CCK-8 tests, filter sterilised Se NPs, Se NP-ε-PL and pure ε-PL in PBS suspensions were diluted in PBS to concentrations of 20, 50, 100, 200, 500 and 1000 μg/mL and 5% (v/v) of these diluted solutions were added to DMEM to give final concentrations of Se NPs of 1, 2.5, 5, 10, 25 and 50 μg/mL The control groups involved DMEM as the negative control and DMEM with 10% dimethyl sulfoxide (DMSO) as the positive control, according to ISO 10993-12 standard. […] 100 μL medium from each well was then transferred to new 96-well plates and the absorbance of each well was tested using a microplate reader (M200 PRO, Tecan) at a wavelength of 450 nm. The cell viability (X) of each experimental group was calculated based on 5 samples according the following formula: […]
where OD1 represents the mean absorbance of experimental groups and the positive control group and OD2 represents the mean absorbance of the negative control group.
A general note: Tetrazolium assays rely on reduction of a dye to a coloured formazan, in cell work by metabolically active cells.

The subject of data set [9] is E. coli ATCC 25922. Briefly: Membrane potential change test (BacLight, DiOC2(3)). As to conditions: 6.25 or 12.5 μg/ml (CCCP 5 μM). The data set is classed as cell-based, Escherichia coli. Here is the method:
as §1

In data set [10] the test system is multidrug-resistant K. pneumoniae (MDR). The experiment in a line: CFU measuring assay / MBC calculation. The format is cell-based, Klebsiella pneumoniae. Conditions: 90 min at 37° C., linear regression, mean ± s.d. The method, then:
as §2, §3

For ε-poly-L-lysine [ε-PL], the “depolarisation of cell membrane” value in data set [1] and in data set [9] was “depolarized cell membranes” in each case. The MBC – broadly, the lowest tested concentration that kills the bacteria rather than only halting them – in data set [2] was 50.0 ± 0.2 µg/mL; in data set [3], 24.3 ± 1.2 µg/mL; in data set [4] it was 50.6 ± 3.5 µg/mL; in [5] it was 25.0 ± 0.1 µg/mL; in [6], 134 ± 10 µg/mL; in [10], 24.7 ± 0.5 µg/mL. Moreover, the “cell morphology after treatment (HIM)” value in data set [7] is “some were dead and distorted”. Moreover, the “toxicity to HDF cells (cell viability, CCK-8)” value in data set [8] is on record as “no significant toxicity”.
